In patent US5424292A (Depha Team s.r.l., priority 1990, dated 1995):

Experiments:
[1] = cited from earlier work
[2] = male Fischer rats, doses equivalent to 60 mg/kg of 5-ASA via metal probe into stomach; for Recovery percentages of 5-ASA + N-acetyl-5-ASA in feces by HPLC: feces withdrawn at 2 hour intervals for 48 hours; for Recovery percentages of 5-ASA + N-acetyl-5-ASA in urine by HPLC: urine withdrawn at 2 hour intervals for 48 hours
Method: Particularly, male Fischer rats weighing about 200-250 g were used.
The rats were then placed in metabolic cages, from which feces and urine were withdrawn at 2 hour intervals for 48 hours.

| Compound | Stability at the gastric pH [1] | Recovery percentages of 5-ASA + N-acetyl-5-ASA in feces by HPLC [2] [%] | Recovery percentages of 5-ASA + N-acetyl-5-ASA in urine by HPLC [2] [%] |
| --- | --- | --- | --- |
| Nc1ccc(O)c(C(=O)O)c1 [Compound 5-ASA, 5-aminosalicylic acid] | not stable at the gastric pH | 05 ± 3 | 79 ± 3 |
| N[C@@H](CCC(=O)O)C(=O)Nc1ccc(O)c(C(=O)O)c1 [Compound 2, (N-L-glutamyl)-amino-2-salicylic acid] |  | 45 ± 4 | 34 ± 4 |
